Reference: patent US20060099712A1, “Correlation of anti-cancer activity of dyes with redox potentials” (Eastman Kodak Company, priority 2004, published 2006)

System: CX-1 Human Colon Carcinoma
Assay: Clonogenic dye screening assay, CX-1 cells (IC50)
Format: cell-based
Set-up: CX: unit not given here
Settings: for CX (IC50 in the CX-1 cell line): 3 hrs treatment, colonies after 7-10 days, unit from method b117-118; for CV/CX (selectivity, kill ratio): ratio of IC50 in normal CV-1 line to IC50 in carcinoma CX-1 line; for CX / CV/CX: Table XVI; for CX: unsymmetrical dyes, CX-1 cells; for CV/CX: selectivity ratio of IC50 values
Outline: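 Cells seeded 16-30 h ahead (2000 CX-1 or 1000 CV-1 per well), exposed to serially diluted dyes for 3 h at 37 °C, rinsed three times, then grown into colonies. Eight-point curves spanned 0.32-0.0015 μg/mL (CX-1) and 3.2-0.025 μg/mL (CV-1). IC50 is the concentration killing 50% of cells.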

CX (IC50 in the CX-1 cell line)	Structure (SMILES)	CV/CX (selectivity, kill ratio)	CX	CV/CX
>.32 µg/mL	CCN1C(=CC=Cc2oc3ccc(F)cc3[n+]2CC)Oc2ccc(F)cc21 [drawing 45|5-F|5-F]	10.0		
0.16 µg/mL	CCN1/C(=C/C=C/c2oc3c(-c4ccccc4)cccc3[n+]2CC)Oc2c(-c3ccccc3)cccc21 [drawing 45|7-Ph|7-Ph]	5.0		
0.10 µg/mL	CCN1C(=CC=Cc2oc3ccccc3[n+]2CC)Oc2ccccc21 [drawing 45|H|H]	30.0		
	CCN1C(=CC=Cc2sc3cc(O)c(O)cc3[n+]2CC)Oc2ccccc21 [drawing 46|S|O|5,6-OH|H]	8.0		
0.10 µg/mL	CCN1/C(=C/C=C/c2sc3ccc4ccccc4c3[n+]2CC)Sc2cc(N)ccc21 [drawing 47|NH2]	40		
0.07 µg/mL	CCN1C(=CC=c2sc(=Cc3sc4ccccc4[n+]3CC)n(CC)c2=O)Sc2ccccc21 [drawing 51|Et]	22.8		
	CC[n+]1c(/C=C/C=C2\[Te]c3ccc4ccccc4c3N2C)sc2ccccc21 [naphtho/1,2/tellurazole]		0.10	3.0
	CC[n+]1c(/C=C/C=C2\Sc3ccc4ccccc4c3N2C)sc2ccccc21 [naphtho/1,2/thiazole (R=E/M)]		0.300	13.3
	CN1/C(=C/C=C/c2sc3ccccc3[n+]2C)Sc2ccc3ccccc3c21 [naphtho/1,2/thiazole (R=M)]		<0.005	10.0
	CCN1C(=CC=Cc2sc3ccccc3[n+]2CC)Sc2cc3ccccc3cc21 [naphtho/2,3/thiazole]		0.007	57.0

Structure (SMILES)	CX (IC50 in the CX-1 cell line)	CV/CX (selectivity, kill ratio)	CX	CV/CX
CCN1C(=CC=Cc2oc3ccc(OC)cc3[n+]2CC)Oc2ccc(OC)cc21 [drawing 45|5-MeO|5-MeO]	0.31 µg/mL	5.16		
CCN1/C(=C\C=C\c2[se]c3ccccc3[n+]2CC)Sc2cc(O)c(O)cc21 [drawing 46|Se|S|H|5,6-OH]	0.30 µg/mL	33.3		
CCN1C(=CC=Cc2[te]c3ccccc3[n+]2CC)[Te]c2ccccc21 [drawing 46|Te|Te|H|H]	0.30 µg/mL	16.7		
